According to patent US8609718B2, “Pharmaceutical composition used in treatment of hyperproliferative skin conditions and malignant melanomas comprising pachastrissamine as active ingredient” (Catholic University Industry Academy Cooperation Foundation, priority 2009, dated 2013):

What was measured:
[1] = system: malignant melanoma cell line A375; experiment: MTT cell viability analysis (cytotoxicity), A375; type: cell-based; details: 24 hours, FIG. 1
Method: (§1) Pachastrissamine's cytotoxicity on a HaCaT cell line and a malignant melanoma cell line was researched through MTT cell viability analysis.
(§2) First, each of a HaCaT cell line (German Cancer Research, obtained from prof. N. Fuseni, Germany), and two kinds of malignant melanoma cell lines, B16F10 (B16) and A375 were inoculated into a DMEM (Dulbecco's Modified Eagle's Medium) culture medium added with 10% FBS (Thermo Fisher Scientific Inc.), 100 unit/ml penicillin, and 100 μg/ml streptomycin, and then cultured in a CO2 incubator (Form a Scientific, Inc.) (37° C., 5%).
(§3) The cultured HaCaT, B16F10, and A375 cells were plated onto a 96-well plate at a concentration of 5×10^4 cells/well, and cultured in a CO2 incubator (37° C., 5%) for 24 hours. The cells in respective wells were treated with pachastrissamine and phytosphingosine at various concentrations of 0, 0.9, 1.8, 3.7, 7.5, 10 μg/ml, and cultured in a CO2 incubator (37° C., 5%) for 24 hours. After the culturing, in a state where the culture medium existed, each well was added with 5 mg/ml MTT reagent at a concentration of 20 μl/[…], and cultured in an incubator for 2 hours. After 2 hours, the culture medium was removed, and each well was added with 150 μl of DMSO (dimethyl sulfoxide). Then, a spectrophotometer was used to measure the absorbance at 540 nm, thereby analyzing the cell viability. Herein, the cell viability was represented as a relative value with respect to 100% of cell viability in a control group not treated with pachastrissamine and phytosphingosine.

[2] = system: malignant melanoma cell line B16F10; experiment: Mouse malignant melanoma (B16F10) lung metastasis model; type: in vivo; details: C57BL6 mouse, B16F10 1×10^6 via tail vein; inoculated once per 4 days (three times); lung on 14th day; FIG. 6
Method: In a C57BL6 mouse, pachastrissamine's effect on malignant melanoma metastasis inhibition was researched. A mouse (aged 6 weeks) was inoculated with a malignant melanoma cell line B16F10 (1×10^6) through a tail vein. After 24 hours from the inoculation, pachastrissamine was inoculated, and also, in a control group, PBS was inoculated in the same amount. Pachastrissamine was inoculated once per 4 days (three times), and on the 14th day from the inoculation of cells, the mouse was dissected to extract the lung. The extracted lung was immersed in 4% formalin solution for 16 hours or more, and washed for 16 hours or more. After the washing, the extracted lung was photographed, and other tissues were embedded in paraffin to make a block. Then, a tissue slice with a thickness of […] was prepared. The tissue slice was subjected to a deparaffin process for H&E (Hematoxylin & Eosin) staining, and then sequentially reacted with 100%, 90%, 80%, 70%, and 60% alcohol solutions to complete the hydration reaction. The completely hydrated slice was subjected to H&E staining, and then reacted with the alcohol solutions in reverse order of the hydration reaction to perform a dehydration reaction. When the dehydration reaction was completed, the slice was fixed on a slide and observed by a microscope.

HaCaT cell line [3] = experiment: TUNEL analysis of apoptosis; type: cell-based, human; details: 10 μg/ml, 24 hours, control: only a limited part, FIG. 2E
Method: A HaCaT cell line was cultured in the same manner as described in Example 1. The cultured HaCaT cell line was plated onto a 60 mm plate at a concentration of 5×10^4 cells/well, and cultured in a CO2 incubator (37° C., 5%) for 24 hours. The cultured cells were treated with pachastrissamine at a concentration of 10 μg/ml, cultured in a CO2 incubator (37° C., 5%) for 24 hours, and subjected to TUNEL analysis.
In order to carry out TUNEL analysis based on ApopTagFluorescein In Situ Apoptosis Detection Kit (Millipore), cells were cultured in a cover slip, and washed with PBS (pH 7.4). In order to completely fix cells, the cells were reacted in a PBS solution including 4% paraformaldehyde at room temperature for 30 minutes. Then, in order to make the cells permeable, the cells were washed with a PBS solution, and reacted in a PBS solution including 0.1% Triton X-100 at room temperature for 5 minutes. For cell marking, the cells were washed with PBS twice, and then diluted TUNEL reaction mixture was added to the cover slip. After incubating in a humidified chamber at 37° C. for 60 minutes, the cover slip was washed. The washed cover slip was reacted with a DAPI solution at room temperature for about 10 minutes, washed with PBS, mounted on a slide, sufficiently dried in a dark place, and analyzed by a fluorescent microscope. […]

[4] = system: malignant melanoma cell line B16F10; experiment: MTT cell viability analysis (cytotoxicity), B16F10; type: cell-based; details: 24 hours, FIG. 1
Method: as §1, §2, §3

HaCaT cell line [5] = experiment: Cell counting by hemocytometer, trypan blue exclusion, HaCaT; type: cell-based, human
Method: A HaCaT cell line was cultured in the same manner as described in Example 1. The cultured HaCaT cell line was plated onto a 60 mm plate at a concentration of 5×10^4 cells/well, and cultured in a CO2 incubator (37° C., 5%) for 24 hours. The cultured cells in respective plates were treated with pachastrissamine at a concentration of 10 μg/ml, and cultured in a CO2 incubator (37° C., 5%) for 24, 36, and 48 hours, respectively. After the culturing, the cells were washed with PBS, treated with trypsin-EDTA, and completely detached from the plate. Then, a hemocytometer was used to count the cells through trypan blue exclusion.
HaCaT, B16F10 and A375 cell lines were cultured in the same manner as described in Example 1. The cultured HaCaT cell line was plated onto a 60 mm plate at a concentration of 5×10^4 cells/well, and cultured in a CO2 incubator (37° C., 5%) for 24 hours. The cultured respective cells were divided into 4 groups. One group was added with only pachastrissamine (PA) at a concentration of 10 μg/ml; another group was added with lithium chloride (apoptosis inhibiting material) (at a final concentration of 300 nM) as well as pachastrissamine at a concentration of 10 μg/ml (PA+Li); and a third group was added with only lithium chloride (Li). The last group was a negative control group (Con) and was added with nothing. These groups were cultured in a CO2 incubator (37° C., 5%) for 24 hours, and then the number of cells were measured in the same manner as described in Example 2-2.

[6] = 0, 0.9, 1.8, 3.7, 7.5, 10 μg/ml

Structure (SMILES): CCCCCCCCCCCCCC[C@@H]1OC[C@H](N)[C@@H]1O [pachastrissamine]
- cell viability (number of surviving cells) with increasing concentration [1, 6]: the number of surviving cells was reduced
- cytotoxicity compared with phytosphingosine [1]: lower cytotoxicity than phytosphingosine
- malignant melanoma metastasis to the lung compared to control group [2]: significantly inhibited
- apoptosis (TUNEL positive) among observed cell nuclei (DAPI stained) (HaCaT cell line [3]): most of observed cell nuclei showed apoptosis
- cell viability (number of surviving cells) with increasing concentration [4, 6]: the number of surviving cells was reduced
- cytotoxicity compared with phytosphingosine [4]: lower cytotoxicity than phytosphingosine
- number of cells over culturing time (cell proliferation) (HaCaT cell line [5]; 10 μg/ml, 24, 36 and 48 hours, control group increased, FIG. 2b): the number of cells decreased
- number of cells compared to no treatment (HaCaT cell line [5]; 10 μg/ml, 24 hours, FIGS. 2C, 2D): the number of cells was decreased
- number of cells with lithium chloride as well as pachastrissamine, compared to only pachastrissamine (HaCaT cell line [5]; pachastrissamine 10 μg/ml + lithium chloride 300 nM (PA+Li), 24 hours): the number of cells was higher
